Values quoted from earlier work in patent US10968484B2, “Methods of identifying responses to map kinase inhibition therapy” (The Broad Institute, Inc., priority 2013, dated 2021).
Like-named read-outs stand apart in the source and are kept apart here.

Test system: BRAF_V600-mutant melanomas (cell lines)
Conditions: read-out: PLX4720 IC50

Structure (SMILES): CCCS(=O)(=O)Nc1ccc(F)c(C(=O)c2c[nH]c3ncc(Cl)cc23)c1F [PLX4720]
- IC50 (resistance class of BRAF_V600-mutant melanoma cell lines): ≥ 8 µM
- IC50 (sensitive class of BRAF_V600-mutant melanoma cell lines): < 1.6 µM
